Experimental findings from patent US12624039B2, “BTK inhibitors” (DIZAL (JIANGSU) PHARMACEUTICAL CO., LTD., priority 2020, dated 2026) are described below.

In brackets after ≈: the same amount, converted by molar mass. Read-outs that look alike come from different tables or passages of the source.

For series [1], the target named is T1, Recombinant BTK wild type (BTK WT) (Homo sapiens, UniProt Q06187).
T1 construct: purchased Thermo fisher
Briefly: BTK WT HTRF kinase assay. It counts as biochemical. The note with it: 30 min pre-incubation, 120 min reaction. The protocol:
Recombinant BTK wild type (BTK WT) was purchased from Thermo fisher.
In brief, recombinant kinases were pre-incubated in the presence or absence of compound at room temperature for 30 minutes. The reaction was initiated by the addition of the ATP and substrate peptide which could be phosphorylated by kinases in the reaction. After 120 minutes incubation, the reaction was stopped by the addition of the detection reagent mix containing EDTA.

Series [2] can be described thus: Protein binding in human plasma by equilibrium dialysis. It counts as in vitro ADME. The note with it: 18 hours at 37° C.; for hPPB (fu %): human plasma, 5 μM, fraction unbound; for fraction unbound at 18 h, 5 μM: human, plasma, pH 7.4, human plasma, read-out: hPPB (fu %). The protocol: [formula] DF means the dilution factor. Procedure for Protein Binding Measurements in Human Plasma by Using Equilibrium Dialysis
Add 597 μL of blank plasma into each vial of a new plastic plate or separate plastic tube by addition of 3 μL of the working solution of each cassette, vortex at 1,000 rpm for 5 minutes. The final percent volume of organic solvent is 0.5% and the final concentration for test compound is 5 μM. Immediately transfer 50 μL of the spiked plasma suspension to a 96-well plate to act as T=0 control sample. The samples are treated the same as the samples after incubation. Place all remaining spiked plasma in the incubator for the duration of the study.
Place inserts open end up into the wells of the base plate. Add 500 μL of phosphate buffer (pH 7.4) to the buffer chamber, which is indicated by the white ring. Add 300 μL of spiked plasma sample into the sample chamber, which is indicated by the red ring. Cover the unit with gas permeable lid and incubate for 18 hours at 37° C. at 300 rpm with 5% CO2 on an orbital shaker in the CO2 incubator. At the end of incubation, remove lid and pipette 50 μL of post-dialysis samples from both buffer and plasma chambers into separated 96-well plate for analysis, respectively.
At the same time, the remaining spiked plasma sample in the plastic plate or separate plastic tube is incubated for 18 hours at 37° C. with 5% CO2 in the CO2 incubator. At T=18 hours, transfer 50 μL of the original spiked plasma suspension to the 96-well plate for analysis.
Add 50 μL of Human plasma to the buffer samples, and an equal volume of PBS to the collected plasma samples. Vortex the plate at 1,000 rpm for 2 minutes and add 400 μL of acetonitrile containing an appropriate internal standard (IS) to precipitate protein and release compound. Vortex at 1,000 rpm for 10 minutes. Centrifuge for 30 minutes at 4,000 rpm. Transfer 250 μl of the supernatant to new 96-well plates and centrifuge again (4,000 rpm, 30 minutes). Then transfer 100 μL of the supernatant to new 96-well plates for analysis. Add 100 μL of distilled water to each sample and vortex for 5 minutes at 1,000 rpm for analysis by LC-MS/MS. All compounds are tested in singlicate at 5 μM in human plasma.
All calculations are carried out using Microsoft Excel.
Calculate the percentage of unbound, percentage of bound and recovery of test compound as follows: […]
For orientation: In equilibrium dialysis only unbound substance equilibrates across the membrane.

A short description of series [3]: DMSO solubility. The class given is physicochemical.
Series [4] in a line: In vitro rat hepatocytes clearance assay. The class given is in vitro ADME. The protocol: (§1) In Vitro Rat/Human Hepatocytes Clearance Assay
(§2) Rat hepatocytes in male gender and human hepatocytes in mixed gender were obtained from commercial vendors (e.g., BioreclamationIVT) and stored at −150° C. prior to use. 10 mM stock solutions of tested compounds were prepared in DMSO. Thawing medium and supplement incubation medium (serum-free) were placed in a 37° C. water bath for at least 15 minutes prior to use. Stock solutions were diluted to 100 μM by combining 198 μL acetonitrile and 2 μL of 10 mM stock solution.
(§3) Vials of cryopreserved hepatocytes were removed from storage, ensured that vials remain at cryogenic temperatures. The vials were thawed in a 37° C. water bath with gently shaking. Vials were kept in a water bath until all ice crystals had dissolved and were no longer visible. Vials were sprayed with 70% ethanol before being transferred to a biosafety cabinet. And then the contents were poured into the 50 mL thawing medium conical tube. Vials were centrifuged at 100 g for 10 minutes at room temperature. Thawing medium was aspirated and hepatocytes were resuspended with serum-free incubation medium to yield ^˜1.5×10^6 cells/mL.
(§4) Cell viability and density were counted using a Trypan Blue exclusion, and then cells were diluted with serum-free incubation medium to a working cell density of 1×10^6 viable cells/ml. A portion of the hepatocytes at 1×10^6 viable cells/mL was boiled for 10 min prior to adding to the plate as negative control to eliminate the enzymatic activity so that little or no substrate turnover should be observed. The inactivated hepatocytes were used to prepare negative samples, which were used to exclude the misleading factor that resulted from instability of chemical itself.
(§5) Aliquots of 247.5 μL hepatocytes were dispensed into each well of a 96-well non-coated plate. The plate was placed in the incubator on an orbital shaker for approximately 10 minutes. Aliquots of 2.5 μL of the 100 μM test compounds were added into respective wells of the non-coated 96-well plate to start the reaction. This assay was performed in duplicate. The plate was incubated in the incubator on an orbital shaker for the designed time points. 20 μL of contents were transferred and mixed with 6 volumes (120 μL) of cold acetonitrile with internal standard to terminate the reaction at time points of 5, 15, 30, 45, 60, 80 and 100 minutes. Samples were centrifuges for 20 minutes at 4000 g and aliquots of 100 μl of the supernatants were used for LC-MS/MS analysis for measurement of test compounds.
(§6) In vitro hepatocyte clearance was estimated based on determination of elimination half-life (T1/2) of compounds disappearance from their initial concentrations. Peak area ratios of each compound (test or control) to IS was calculated. Ln (% Control) versus Incubation Time (min) curve was plotted, and the slope of a linear fitting line was calculated. Drug elimination rate constant k (min-1), T1/2 (min), and in vitro intrinsic clearance CLint (μL/min/E6) was calculated according to the following equations: k=−slope T1/2=0.693/k CLint=k/Chep • Where Chep (cells×μL-1) is the cell concentration in the incubation system. Procedure for Log D Determination

The nature of series [5]: In vitro human hepatocytes clearance assay. The class given is in vitro ADME. The protocol:
as §1, §2, §3, §4, §5, §6

The target of series [6] is T2, p-BTK (Phospho-Btk Tyr223) in TMD-8 cells (Homo sapiens, UniProt Q06187).
T2 construct: endogenous in cells; host or cells: TMD-8
The series can be described thus: TMD8 cell line p-BTK Elisa assay. The note with it: for Maximal Inhibition Level: p-BTK ELISA; for IC50: pervanadate 100 μM, Tyr223 ELISA. It counts as cell-based. The protocol: The test compounds were added to the cells and cells were incubated for 0.5 hour at 37° C., 5% CO2. Then pervanadate solution was added to the cells to make a final concentration of 100 μM, and cells were incubated for a further 1 hour at 37° C., 5% CO2. […] The plate was read on a Multiscan Spectrum reader set to 450 nm wavelengths.
A general note: In an ELISA, binding on a coated surface is turned into a signal by an enzyme label.

T2 sequence (Q06187 whole entry): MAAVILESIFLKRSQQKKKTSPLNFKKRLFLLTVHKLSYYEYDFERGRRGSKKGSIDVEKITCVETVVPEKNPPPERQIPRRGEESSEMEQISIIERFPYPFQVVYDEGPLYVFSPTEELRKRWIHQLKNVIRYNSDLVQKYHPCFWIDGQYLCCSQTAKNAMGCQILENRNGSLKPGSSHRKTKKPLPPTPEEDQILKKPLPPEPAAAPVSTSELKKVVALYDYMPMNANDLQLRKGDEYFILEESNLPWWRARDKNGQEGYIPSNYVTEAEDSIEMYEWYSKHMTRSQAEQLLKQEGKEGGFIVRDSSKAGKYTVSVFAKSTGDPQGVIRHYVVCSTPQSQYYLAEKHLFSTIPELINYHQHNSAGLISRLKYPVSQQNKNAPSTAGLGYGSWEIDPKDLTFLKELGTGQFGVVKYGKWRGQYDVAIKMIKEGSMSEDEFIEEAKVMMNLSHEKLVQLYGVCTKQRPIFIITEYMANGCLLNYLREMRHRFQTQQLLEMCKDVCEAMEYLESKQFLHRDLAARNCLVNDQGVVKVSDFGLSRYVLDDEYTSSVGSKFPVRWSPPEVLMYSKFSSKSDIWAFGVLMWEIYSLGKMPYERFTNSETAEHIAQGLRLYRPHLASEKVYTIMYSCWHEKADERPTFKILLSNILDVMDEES
T1 sequence (Q06187 whole entry): as above

As usually defined, the IC50 is the midpoint of a concentration-inhibition curve. For orientation: solubility means how much of the substance goes into solution per volume. With `Nc1ncnn2c(C3CCC(CO)OC3)nc(-c3ccc(Oc4ccccc4)cc3F)c12` (single isomer, unassigned) [Compound 10, Trans-(5-(4-amino-5-(2-fluoro-4-phenoxyphenyl)imidazo[5,1-f][1,2,4]triazin-7-yl)tetrahydro-2H-pyran-2-yl)methanol], the IC50 in series [1] is 0.9 nM. For the same compound, in series [2], the “hPPB (fu %)” value came out at 8.1%. For the same compound, the solubility in series [3] is given as 20.5 µM (≈ 8.93 µg/mL). In addition, in series [4], the “Rat Hep Clint” value turned out to be 17.1 μL/min/10∧6 cells. Further, the “Human Hep Clint” value in series [5] amounted to 1.7 μL/min/10∧6 cells. Moreover, in series [6], the “Maximal Inhibition Level” value came out at 98.5% and the half-maximal inhibitory concentration (IC50) was 29 nM.
For `Nc1ncnn2c(C3CCC(CO)OC3)nc(-c3ccc(Oc4ccccc4)cc3F)c12` (single isomer, unassigned) [Compound 11, Trans-(5-(4-amino-5-(2-fluoro-4-phenoxyphenyl)imidazo[5,1-f][1,2,4]triazin-7-yl)tetrahydro-2H-pyran-2-yl)methanol], the IC50 in series [1] was determined as 4.51 nM. The “hPPB (fu %)” value in series [2] stood at 8.9%. This compound showed a solubility in series [3] of less than 1.6 µM. For the same compound, the “Rat Hep Clint” value in series [4] is given as 11.7 μL/min/10∧6 cells. The “Human Hep Clint” value in series [5] is reported as 3.6 μL/min/10∧6 cells. For the same compound, in series [6], the “Maximal Inhibition Level” value is listed as 99.3% and the 50% inhibitory concentration (IC50) is 34.7 nM.
`Nc1nccn2c(C3CCC(CO)OC3)nc(-c3ccc(Oc4ccccc4)cc3)c12` (centres unmarked) [Compound 1, (5-(8-amino-1-(4-phenoxyphenyl)imidazo[1,5-a]pyrazin-3-yl)tetrahydro-2H-pyran-2-yl)methanol]: the IC50 in series [1] is 1.16 nM. For the same compound, the fraction unbound at 18 h, 5 μM in series [2] was 0.098. In series [3] (kinetic from dmso stock), the solubility is 51.3 µM (≈ 21.4 µg/mL). Further, the “Rat Hep Clint” value in series [4] amounted to 12.4 μL/min/10∧6 cells. In series [5], the “Human Hep Clint” value is given as 28.9 μL/min/10∧6 cells. In series [6], the “Maximal Inhibition Level” value is reported as 97.9% and the half-inhibitory concentration (IC50) was 18.9 nM.
In the case of `Nc1ncnn2c(C3CCC(CO)OC3)nc(-c3ccc(Oc4ccccc4)c(F)c3F)c12` (centres unmarked) [Compound 12, (5-(4-amino-5-(2,3-difluoro-4-phenoxyphenyl)imidazo[1,5-f][1,2,4]triazin-7-yl)tetrahydro-2H-pyran-2-yl)methanol], the IC50 in series [1] was found to be 0.27 nM. Moreover, in series [2], the fraction unbound at 18 h, 5 μM worked out at 0.074. In addition, in series [3], the solubility worked out at 45.7 µM (≈ 20.7 µg/mL). Moreover, the “Rat Hep Clint” value in series [4] stood at 46.8 μL/min/10∧6 cells. In addition, the “Human Hep Clint” value in series [5] was 2.0 μL/min/10∧6 cells. Also, in series [6], the “Maximal Inhibition Level” value turned out to be 97.0% and the concentration for half-maximal inhibition (IC50) amounted to 23.2 nM.
In the case of `Nc1ncnn2c(C3CCC(CO)OC3)nc(-c3ccc(Oc4cccc(F)c4F)cc3)c12` (centres unmarked) [Compound 14, (5-(4-amino-5-(4-(2,3-difluorophenoxy)phenyl)imidazo[5,1-f][1,2,4]triazin-7-yl)tetrahydro-2H-pyran-2-yl)methanol], in series [1], the IC50 was 0.7 nM. Further, the fraction unbound at 18 h, 5 μM in series [2] came to 0.049. Further, in series [3] (kinetic from dmso stock), the solubility worked out at 48 µM (≈ 21.8 µg/mL). Besides, the “Rat Hep Clint” value in series [4] is given as 9.48 μL/min/10∧6 cells. Also, in series [5], the “Human Hep Clint” value is 2.5 μL/min/10∧6 cells. For the same compound, in series [6], the “Maximal Inhibition Level” value stood at 98.0% and inhibition was half-maximal at 24.3 nM (IC50).
